Results: PMC7601231 (Polymers, 2020)

Columns and labels:
[1] = Vascular stimulation test, ear vein injection; format: in vivo, New Zealand white rabbits; details: rabbit ear vein, 0.7 mg/kg, every day, three injections
Description: Preparations were administered every day for a total of three injections. At designed time points, rabbits were anesthetized and ear tissue was soaked with 10% formalin. Then the histopathologic examination was conducted.

[2] = Phase-solubility studies of DTX in SBE-β-CD aqueous solution; format: physicochemical; details: 25 °C
Description: In this study, the stability constant was assessed by classic determination method using solubility diagrams that required calculations involving drug solubility. […] Then the resulting suspensions were shaken in a thermostatic air-bath shaker at 25 °C for 48 h until equilibrium was achieved. After that, the saturated supernatant fluid was centrifuged for 5 min under 5000 rpm, and then the top fluid was withdrawn and filtered through a 0.45-μm filter. The filtrate was diluted appropriately with deionized water and analyzed by HPLC as reported above.

[3] = Biodistribution study in rats; format: in vivo; details: 10 mg/kg, 10, 60 and 360 min after administration
[4] = Pharmacokinetic study in rats after injection; format: in vivo, Sprague–Dawley rats; details: 10 mg/kg, n = 12
Description: Blood samples (0.5 mL) were taken from the retinal vein of the rats using a capillary and at the following time points after injecting: 5, 10, 15, 30 min, 1, 2, 4, 6, 8, 10 and 12 h. The sample should be transferred to the heparin sodium tube for anticoagulation. The samples were centrifuged at 4000 rpm for 10 min. The resultant plasma was poured into 2-mL cryogenic plastic tubes and stored in a freezer (at […]) until assayed. A week later, the two groups of animals exchanged the drug and obtained plasma samples, which were stored in the −20-degree refrigerator for analysis. The sample was extracted in the following steps: the plasma ([…]) was mixed with […] of paclitaxel solution (4.0 mg/mL) as […], and 1.0 mL methyl tert-butyl ether in a 2-mL plastic centrifuge tube, centrifuged at 10,000 rpm for 5 min to precipitate the proteins and the supernatant layer (0.8 mL) was blown dry by N2 and is dissolved by 0.1 mL methanol, which was centrifuged at 10,000 rpm for 10 min. The supernatant layer ([…]) was analyzed by LC-MS (Waters, American).
The plasma concentration versus time curves of the two preparations were plotted. The pharmacokinetic parameters such as elimination rate (Ke) and elimination half-life (T1/2) were calculated by using DAS2.0 software. The maximum peak concentration (Cmax) and the corresponding sampling time (Tmax) were obtained from the curves directly. The areas under the plasma concentration–time curve from time zero to time t (AUC0–t) and from time zero to infinity (AUC0-∞) were calculated by the method of moments. Statistical comparisons were made by using a ANOVA test and p value smaller than 0.05 was considered statistically significant.

SMILES: CC(=O)O[C@@]12CO[C@@H]1C[C@H](O)[C@@]1(C)C(=O)[C@H](O)C3=C(C)[C@@H](OC(=O)[C@H](O)[C@@H](NC(=O)OC(C)(C)C)c4ccccc4)C[C@@](O)([C@@H](OC(=O)c4ccccc4)[C@H]21)C3(C)C [DTX, Docetaxel]
- vascular stimulation: reaction at the injection site (histopathology) [1]: serious vascular inflammation and surrounding tissue lesions
- increase of water solubility of DTX over its original values [2]: about 800 times
- concentration of DTX in brain, fat and testis [3]: low
- AUC(0-t) [4]: 881.4 ± 30.4 ng/mL ∗ h
- AUC(0-∞) [4]: 925.8 ± 35.2 ng/mL ∗ h
- Cmax ([4]; male, Sprague-Dawley, rat, plasma, other: injection): 1100 ± 98 ng/mL
